Test results from patent publication US12152038B2, “Vasopressin receptor antagonists and products and methods related thereto” (Neumora Therapeutics, Inc., priority 2017, dated 2024).
Counter-ions that a name gives are not always drawn.

What follows are compounds tested against T1, human Arginine Vasopressin Receptor 1a (AVPR1a) (Homo sapiens, UniProt P37288) (assay: Vasopressin V1a receptor antagonist assay (FLIPR calcium, CHO-AVPR1a cells)).
T1 construct: expressed in transfected cells; host or cells: CHO (CHO-AVPR1a, kept under G418 selection)
Format: cell-based
Method: The purpose of this assay was to determine the inhibitory effect of synthesized compounds on the Vasopressin V1a receptor. The assay was performed in Chinese Hamster Ovary (CHO) cells expressing the human Arginine Vasopressin Receptor 1a (AVPR1a). Arginine Vasopressin (AVP) evokes an increase in intracellular calcium in CHO-AVPR1a cells which is measured in a fluorescence assay on the FLIPR^TETRA using calcium sensitive dyes. Test compounds were assessed for their ability to affect the magnitude of the response to AVP, with antagonists showing a concentration-dependent reduction in the AVP-mediated fluorescence. Compounds were tested in duplicate in a 10-point, 1:3 dilution series starting at a nominal concentration of 3 μM in the assay.
CHO-AVPR1a cells were maintained in routine culture in T175 Flasks at 37° C., 5% CO2. The growth medium consists of Ham's F12 media supplemented with 10% v/v fetal bovine serum, 1× non-essential amino acids, and 0.4 mg/ml Geneticin G418.
On day one, cells were harvested from T175 flasks when they are 80-90% confluent by first washing the cell monolayer with PBS and then dissociated using trypsin 0.05%/EDTA (3 mL for a T175 Flask). The flasks were incubated at room temperature until the cells detached. To the cell suspension, 10 ml of growth media was added and the cell density determined using the Vi-Cell automated cell counter. The cells were spun at 1000 rpm for 3 minutes, then the supernatant was carefully removed and discarded. The cell pellet was re-suspended at 6.0e^5 cells/ml in growth media. 25 μL of cells in growth media was dispensed into each well (15,000 cells per well) of a poly-D-lysine coated black, clear bottomed, 384-well plate. The plates were incubated at 37° C., 5% CO2 overnight.
At the start of each assay day, the potency of AVP was assessed and an EC80 concentration determined for subsequent compound profiling. Assays were performed using a two-step addition protocol on the FLIPR^TETRA; first addition of 5 μl of control or test compound at 10× final in assay buffer with 15 min incubation at 37° C., 5% CO2 followed by 10 μl of AVP at 6× final concentration in assay buffer. Changes in fluorescence were monitored for 3 min after both additions on the FLIPR^TETRA using 470-495 nm excitation and 515-575 nm emission wavelengths. The assay buffer consisted of HBSS (+Ca/+Mg) supplemented with 20 mM HEPES, and for the preparation of the AVP agonist only, 0.1% w/v bovine serum albumin. The assay was initiated by the removal of growth media from the cells and replacement with 45 μl of Calcium-6 dye (Molecular Devices) prepared at 1× in assay buffer. Cells were loaded with dye for 60-90 min at 37° C., 5% CO2 before initiation of the FLIPR^TETRA protocol. […] For compound profiling, test compounds were first serially diluted in DMSO (10-point curve, 1:3 dilutions) then diluted 33.3-fold in assay buffer prior to addition to the dye loaded cells on the FLIPR^TETRA. At the end of the incubation period, 10 μl of AVP in assay buffer containing 0.1% BSA was added at the previously determined EC80 concentration.
In-plate controls for the assay included balovaptan and PF-184563 concentration-response curves as reference V1a antagonists, and an AVP concentration-response curve to confirm the reproducibility of the EC80 used for the compound challenge.

T1 sequence (P37288 whole entry): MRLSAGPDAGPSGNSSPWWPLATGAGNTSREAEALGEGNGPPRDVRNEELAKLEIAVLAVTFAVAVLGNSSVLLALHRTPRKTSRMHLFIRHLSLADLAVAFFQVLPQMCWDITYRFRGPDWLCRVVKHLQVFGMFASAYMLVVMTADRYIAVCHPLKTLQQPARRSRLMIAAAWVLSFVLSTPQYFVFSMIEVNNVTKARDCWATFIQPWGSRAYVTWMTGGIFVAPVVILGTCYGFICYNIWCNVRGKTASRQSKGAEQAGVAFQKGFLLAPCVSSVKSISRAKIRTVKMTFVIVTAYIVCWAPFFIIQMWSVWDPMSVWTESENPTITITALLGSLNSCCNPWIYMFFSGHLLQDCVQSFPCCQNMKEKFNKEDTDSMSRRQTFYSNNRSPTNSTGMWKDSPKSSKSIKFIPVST

Row | IC50 [nM] | SMILES
1 | 500 to 1000 | N#Cc1cnc(N2CC3(CN(C(=O)N4CCOc5cc(Cl)ccc54)C3)C2)cn1 [1-24]
2 | ≥ 1000 | O=C(N1CC2(C1)CN(c1ccnnc1)C2)N1CCOc2cc(Cl)ccc21 [1-25]
3 | 100 to 500 | Cc1ccc(N2CC3(CN(C(=O)N4CCOc5cc(Cl)ccc54)C3)C2)nn1 [1-26]
4 | 100 to 500 | COc1ccc(N2CC3(CN(C(=O)N4CCOc5cc(Cl)ccc54)C3)C2)nn1 [1-27]
5 | ≥ 1000 | CN1Cc2cnc(N3CC4(CN(C(=O)N5CCOc6cc(Cl)ccc65)C4)C3)nc2C1 [1-28]
6 | < 100 | Cc1cc(N2CC3(CN(C(=O)N4CCOc5cc(Cl)ccc54)C3)C2)ncc1C#N [1-29]
7 | 100 to 500 | O=C(N1CC2(C1)CN(c1ccc(C(F)(F)F)cn1)C2)N1CCOc2cc(Cl)ccc21 [1-31]
8 | 100 to 500 | O=C(N1CC2(C1)CN(c1cccc(CO)n1)C2)N1CCOc2cc(Cl)ccc21 [1-32]
9 | < 100 | O=C(N1CC2(C1)CN(c1nccnc1F)C2)N1CCOc2cc(Cl)ccc21 [1-33]
10 | ≥ 1000 | O=C(N1CC2(C1)CN(c1ccncc1)C2)N1CCOc2cc(Cl)ccc21 [1-34]
11 | ≥ 1000 | O=C(N1CC2(C1)CN(c1ccnc(OC(F)F)c1)C2)N1CCOc2cc(Cl)ccc21 [1-35]
12 | ≥ 1000 | Cc1cc(N2CC3(CN(C(=O)N4CCOc5cc(Cl)ccc54)C3)C2)ccn1 [1-36]
13 | 100 to 500 | Cc1cnc(N2CC3(CN(C(=O)N4CCOc5cc(Cl)ccc54)C3)C2)nc1 [1-37]
14 | < 100 | Cc1cc(C)nc(N2CC3(CN(C(=O)N4CCOc5cc(Cl)ccc54)C3)C2)n1 [1-38]
15 | 100 to 500 | O=C(N1CC2(C1)CN(c1ccc(F)cc1)C2)N1CCOc2cc(Cl)ccc21 [1-40]
16 | 100 to 500 | Cn1ccc2ncc(N3CC4(CN(C(=O)N5CCOc6cc(Cl)ccc65)C4)C3)cc21 [1-41]
17 | 100 to 500 | Cn1nccc1N1CC2(CN(C(=O)N3CCOc4cc(Cl)ccc43)C2)C1 [1-42]
18 | < 100 | O=C(N1CC2(C1)CN(c1nccn3cncc13)C2)N1CCOc2cc(Cl)ccc21 [1-44]
19 | < 100 | Cc1ccc(N2CC3(CN(C(=O)N4CCOc5cc(Cl)ccc54)C3)C2)nc1F [1-46]
20 | < 100 | COc1ccnc(N2CC3(CN(C(=O)N4CCOc5cc(Cl)ccc54)C3)C2)n1 [1-47]
21 | 100 to 500 | COc1cnc(N2CC3(CN(C(=O)N4CCOc5cc(Cl)ccc54)C3)C2)nc1 [1-48]

Row | IC50 [nM] | SMILES
22 | < 100 | O=C(N1CC2(C1)CN(c1ncc(F)cc1F)C2)N1CCOc2cc(Cl)ccc21 [1-50]
23 | < 100 | Cc1cc(F)cnc1N1CC2(CN(C(=O)N3CCOc4cc(Cl)ccc43)C2)C1 [1-52]
24 | 100 to 500 | Cn1ccnc1N1CC2(CN(C(=O)N3CCOc4cc(Cl)ccc43)C2)C1 [1-54]
25 | < 100 | CCC1COc2cc(Cl)ccc2N1C(=O)N1CC2(C1)CN(c1ccc(F)cn1)C2 (stereo not drawn) [1-55]
26 | < 100 | CCC1COc2cc(F)ccc2N1C(=O)N1CC2(C1)CN(c1ccc(F)cn1)C2 (stereo not drawn) [1-56]
27 | < 100 | CC1COc2cc(Cl)ccc2N1C(=O)N1CC2(C1)CN(c1ncccc1F)C2 (stereo not drawn) [1-57]
28 | < 100 | CC1COc2cc(Cl)ccc2N1C(=O)N1CC2(C1)CN(c1cnccn1)C2 (stereo not drawn) [1-58]
29 | < 100 | COc1ccc2c(c1)OCC(C)N2C(=O)N1CC2(C1)CN(c1ccc(F)cn1)C2 (stereo not drawn) [1-59]
30 | 500 to 1000 | CC(C)(C)OC(=O)N1CC2(C1)CN(C(=O)N1CCOc3cc(Cl)ccc31)C2 [1-61]
31 | < 100 | CC1COc2cc(F)ccc2N1C(=O)N1CC2(C1)CN(c1cccnn1)C2 (stereo not drawn) [1-62]
32 | 100 to 500 | O=C(N1CC2(C1)CN(c1ccc(F)cn1)C2)N1CCOc2ccccc21 [1-63]
33 | < 100 | CC1COc2cc(F)ccc2N1C(=O)N1CC2(C1)CN(c1cnccn1)C2 (stereo not drawn) [1-65]
34 | < 100 | CC1COc2cc(F)ccc2N1C(=O)N1CC2(C1)CN(c1ccccn1)C2 (stereo not drawn) [1-66]
35 | < 100 | CC1COc2cc(Cl)ccc2N1C(=O)N1CC2(C1)CN(c1ccc(F)cn1)C2 (stereo not drawn) [1-73]
36 | 100 to 500 | O=C(N1CC2(C1)CN(c1ccncn1)C2)N1CCOc2cc(Cl)ccc21 [1-74]
37 | ≥ 1000 | O=C(N1CC2(C1)CN(c1ccc(F)cn1)C2)N1CCCS(=O)(=O)c2cc(Cl)ccc21 [1-75]
38 | < 100 | O=C(N1CC2(C1)CN(c1cc(C(F)F)ccn1)C2)N1CCOc2cc(Cl)ccc21 [1-80]
39 | < 100 | O=C(N1CC2(C1)CN(c1n[nH]c3ccccc13)C2)N1CCOc2cc(Cl)ccc21 [1-82]
40 | ≥ 1000 | O=C(N1CC2(CN(Cc3ccncc3)C2)C1)N1CCOc2cc(Cl)ccc21 [2-1, (7-chloro-2,3-dihydro-4H-benzo[b][1,4]oxazin-4-yl)(6-(pyridin-4-ylmethyl)-2,6-diazaspiro[3.3]heptan-2-yl)methanone]
41 | ≥ 1000 | O=C(N1CC2(CN(Cc3ccccn3)C2)C1)N1CCOc2cc(Cl)ccc21 [2-2]
42 | ≥ 1000 | O=C(N1CC2(CN(Cc3cccnc3)C2)C1)N1CCOc2cc(Cl)ccc21 [2-3]

Row | IC50 [nM] | SMILES
43 | ≥ 1000 | CC(c1cccnc1)N1CC2(CN(C(=O)N3CCOc4cc(Cl)ccc43)C2)C1 (stereo not drawn) [2-4]
44 | ≥ 1000 | O=C(N1CC2(CN(Cc3cnccn3)C2)C1)N1CCOc2cc(Cl)ccc21 [2-5]
45 | ≥ 1000 | O=C(N1CC2(CN(Cc3ccc(F)cn3)C2)C1)N1CCOc2cc(Cl)ccc21 [2-6]
46 | < 100 | Cc1cnnc(N2CC3(CN(C(=O)N4CCOc5cc(Cl)ccc54)C3)C2)c1 [3-1, (7-chloro-2,3-dihydro-4H-benzo[b][1,4]oxazin-4-yl)(6-(5-methylpyridazin-3-yl)-2,6-diazaspiro[3.3]heptan-2-yl)methanone]
47 | 100 to 500 | O=C(N1CC2(C1)CN(c1ccn3ccnc3c1)C2)N1CCOc2cc(Cl)ccc21 [5-1, (7-chloro-2,3-dihydro-4H-benzo[b][1,4]oxazin-4-yl)(6-(imidazo[1,2-a]pyridin-7-yl)-2,6-diazaspiro[3.3]heptan-2-yl)methanone formate]
48 | 100 to 500 | Cc1nc(N2CC3(CN(C(=O)N4CCOc5cc(Cl)ccc54)C3)C2)no1 [7-1, (7-chloro-2,3-dihydro-4H-benzo[b][1,4]oxazin-4-yl)(6-(5-methyl-1,2,4-oxadiazol-3-yl)-2,6-diazaspiro[3.3]heptan-2-yl)methanone]
49 | 100 to 500 | COc1ccc(N2CC3(CN(C(=O)N4CCOc5cc(Cl)ccc54)C3)C2)cn1 [8-1, (7-chloro-2,3-dihydro-4H-benzo[b][1,4]oxazin-4-yl)(6-(6-methoxypyridin-3-yl)-2,6-diazaspiro[3.3]heptan-2-yl)methanone]
50 | ≥ 1000 | O=C(N1CC2(C1)CN(c1ccc(F)cn1)C2)N1CCOc2ncccc21 [8-5]
51 | ≥ 1000 | O=C(N1CC2(C1)CN(c1ccc(F)cn1)C2)N1CCOc2ccncc21 [8-6]
52 | < 100 | CN1CCN(C(=O)N2CC3(C2)CN(c2ccc(F)cn2)C3)c2ccc(F)cc21 [8-8]
53 | < 100 | CN1CCCN(C(=O)N2CC3(C2)CN(c2ccc(F)cn2)C3)c2ccc(F)cc21 [8-10]
54 | < 100 | O=C(N1CC2(C1)CN(c1ccc(F)cn1)C2)N1CCSc2cc(Cl)ccc21 [8-15]
55 | 100 to 500 | O=C(N1CC2(C1)CN(c1ccc(F)cn1)C2)N1CCS(=O)(=O)c2cc(Cl)ccc21 [8-17]
56 | < 100 | CC1CN(C(=O)N2CC3(C2)CN(c2ccc(F)cn2)C3)c2ccc(F)cc2O1 (stereo not drawn) [9-4]
57 | < 100 | O=C(N1CC2(C1)CN(c1ccc(F)cn1)C2)N1CCOc2c1ccc(F)c2F [9-5]
58 | < 100 | O=C(N1CC2(C1)CN(c1ccc(F)cn1)C2)N1CCCc2cc(Cl)ccc21 [9-8]
59 | < 100 | CC1(C)CCN(C(=O)N2CC3(C2)CN(c2ccc(F)cn2)C3)c2ccc(Cl)cc21 [9-9]
60 | ≥ 1000 | CS(=O)(=O)N1CC2(CN(C(=O)N3CCOc4cc(Cl)ccc43)C2)C1 [10-1, (7-chloro-2,3-dihydro-4H-benzo[b][1,4]oxazin-4-yl)(6-(methylsulfonyl)-2,6-diazaspiro[3.3]heptan-2-yl)methanone]
61 | < 100 | O=C(N1CC2(C1)CN(c1ccccn1)C2)N1CCC(O)c2cc(Cl)ccc21 (stereo not drawn) [13-2]
62 | < 100 | O=C(N1CC2(C1)CN(c1ncccc1F)C2)N1CCC(O)c2cc(Cl)ccc21 (stereo not drawn) [13-4]
63 | < 100 | O=C(N1CC2(C1)CN(c1ccc(F)cn1)C2)N1CCC(O)c2c1ccc(Cl)c2F (stereo not drawn) [13-5]
